Test results as given in PMC6957243 (Bioorganic & medicinal chemistry letters, 2014).

Experiments:
[1] = molecular target: T1, rat TRPV1 heterologously expressed in Chinese hamster ovary (CHO) cells (Rattus norvegicus, UniProt O35433); experiment: binding competition assay with [3H]RTX; conditions: respectively; for increase in binding affinity: 19 and 20 compared to (R)-5a and (S)-5a; for increases in binding affinity: 24 and 28 compared to 5b and 5c
[2] = molecular target: T1, rat TRPV1 heterologously expressed in Chinese hamster ovary (CHO) cells; experiment: functional 45Ca2+ uptake assay, antagonism of capsaicin; format: cell-based; conditions: 24 and 28 compared to 5b and 5c, respectively

T1 sequence (O35433 whole entry): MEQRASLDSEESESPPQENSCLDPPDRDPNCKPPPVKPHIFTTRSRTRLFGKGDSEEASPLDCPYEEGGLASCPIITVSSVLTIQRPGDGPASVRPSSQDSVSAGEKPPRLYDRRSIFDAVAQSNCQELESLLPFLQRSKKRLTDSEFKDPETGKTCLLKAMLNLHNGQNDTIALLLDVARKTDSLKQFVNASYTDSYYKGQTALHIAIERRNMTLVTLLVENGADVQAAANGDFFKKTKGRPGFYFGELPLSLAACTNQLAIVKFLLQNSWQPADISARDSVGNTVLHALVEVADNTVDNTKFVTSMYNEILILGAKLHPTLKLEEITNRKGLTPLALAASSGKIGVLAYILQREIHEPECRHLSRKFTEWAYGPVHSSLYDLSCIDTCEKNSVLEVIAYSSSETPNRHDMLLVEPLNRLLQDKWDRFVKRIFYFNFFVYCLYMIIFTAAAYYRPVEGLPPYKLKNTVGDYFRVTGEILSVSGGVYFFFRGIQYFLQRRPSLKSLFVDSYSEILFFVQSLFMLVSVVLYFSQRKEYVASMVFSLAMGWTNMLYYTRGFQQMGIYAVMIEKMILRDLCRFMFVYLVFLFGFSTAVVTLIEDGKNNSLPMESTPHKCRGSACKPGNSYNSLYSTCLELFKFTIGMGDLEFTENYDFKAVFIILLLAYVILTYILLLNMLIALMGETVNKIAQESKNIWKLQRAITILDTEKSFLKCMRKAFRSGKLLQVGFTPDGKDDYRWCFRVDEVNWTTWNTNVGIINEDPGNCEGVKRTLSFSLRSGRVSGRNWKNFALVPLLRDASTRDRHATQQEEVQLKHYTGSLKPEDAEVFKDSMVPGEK

| SMILES | increase in binding affinity [1] | increases in binding affinity [1] | increases in antagonism [2] |
| --- | --- | --- | --- |
| C[C@@H](NC(=S)NC[C@H](COC(=O)C(C)(C)C)Cc1ccccc1)c1ccc(NS(C)(=O)=O)cc1 [compound 19] | ~10 fold |  |  |
| C[C@@H](NC(=S)NCC(COC(=O)C(C)(C)C)Cc1ccc(C(C)(C)C)cc1)c1ccc(NS(C)(=O)=O)cc1 (stereo partly drawn) [compound 28] |  | 6 fold | 4 fold |
| Cc1ccc(CC(CNC(=S)N[C@H](C)c2ccc(NS(C)(=O)=O)cc2)COC(=O)C(C)(C)C)cc1C (stereo partly drawn) [compound 24] |  | 5 fold | 10 fold |
| C[C@@H](NC(=S)NC[C@@H](COC(=O)C(C)(C)C)Cc1ccccc1)c1ccc(NS(C)(=O)=O)cc1 [compound 20] | ~10 fold |  |  |
